Experimental data published in ChEMBL document CHEMBL1201862, “PubChem BioAssay data set” (2004).
The source made the active and inactive calls.

Assays:
[1] = target: T1, Heat shock factor protein 1 (Mus musculus, UniProt P38532); test: HSF1 potentiators in luciferase reporter cells, confirmation, cell-based, NIH3T3, luminescence, dose retest (AID 435004); format: functional;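 also: stress induced by proteasome inhibitor MG132 added 30 min after compound; luciferase reporter driven by HSF1 response element in NIH3T3 cells; actives raise luminescence as potentiators of the MG132 stress response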
T1 sequence (P38532 whole entry): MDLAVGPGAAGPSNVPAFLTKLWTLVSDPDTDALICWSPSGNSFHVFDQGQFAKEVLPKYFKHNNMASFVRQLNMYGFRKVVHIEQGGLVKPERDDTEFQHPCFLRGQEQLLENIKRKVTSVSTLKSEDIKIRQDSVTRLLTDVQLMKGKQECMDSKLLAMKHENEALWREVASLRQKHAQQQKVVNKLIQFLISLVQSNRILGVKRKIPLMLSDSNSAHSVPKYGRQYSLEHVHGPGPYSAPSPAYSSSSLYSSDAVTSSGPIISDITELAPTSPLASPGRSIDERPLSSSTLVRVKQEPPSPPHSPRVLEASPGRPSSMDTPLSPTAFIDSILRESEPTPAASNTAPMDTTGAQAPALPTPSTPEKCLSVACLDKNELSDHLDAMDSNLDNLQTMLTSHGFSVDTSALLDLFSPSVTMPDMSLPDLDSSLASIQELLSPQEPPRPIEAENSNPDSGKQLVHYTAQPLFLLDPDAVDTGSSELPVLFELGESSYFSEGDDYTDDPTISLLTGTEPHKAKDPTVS

[2] = cells; format: functional, cell-based
[3] = cells; format: functional, cell-based; remark: listed apart in the source
[4] = Luminescence Cell-Based Dose Confirmation HTS to Identify Activators of 5'UTR Stem-Loop Driven Alpha-Synuclein mRNA Translation in H4 Neuroglioblastoma Cells. [Related pubchem assays: 1829 (Project Summary), 1814 (Primary HTS)]; format: functional
[5] = Luminescence Cell-Based Dose Response HTS to Identify Activators of Luciferase Translation or Activity in H4 […] Cells. [Related pubchem assays: 1829 (Project Summary), 1814 (Primary HTS)]; format: functional
[6] = test system: H4; test: Luminescence Cell-Based Dose Response HTS to Identify Activators of 5'UTR Stem-Loop Driven Prion Protein mRNA Translation in H4 Neuroglioblastoma Cells. [Related pubchem assays: 1829 (Project Summary), 1814 (Primary HTS)]; format: functional; conditions: Homo sapiens
[7] = test system: Streptococcus sp. 'group A'; test: growth inhibition of control SK(-) GAS strain, dose response, counter-screen for streptokinase expression inhibitor project, luminescence, kanamycin, BacTiterGlo, confirmation (AID 1900); format: functional, organism-based
[8] = target: T2, Streptokinase A (Streptococcus pyogenes serotype M1, UniProt P10520); test: S. pyogenes streptokinase expression inhibitors, potency, dose response, plasminogen activation absorbance, OD405 (AID 1914); format: functional, Streptococcus pyogenes M1 GAS;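 also: secreted streptokinase activity via plasminogen activation per viability signal from cell pellet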
T2 sequence (P10520 whole entry): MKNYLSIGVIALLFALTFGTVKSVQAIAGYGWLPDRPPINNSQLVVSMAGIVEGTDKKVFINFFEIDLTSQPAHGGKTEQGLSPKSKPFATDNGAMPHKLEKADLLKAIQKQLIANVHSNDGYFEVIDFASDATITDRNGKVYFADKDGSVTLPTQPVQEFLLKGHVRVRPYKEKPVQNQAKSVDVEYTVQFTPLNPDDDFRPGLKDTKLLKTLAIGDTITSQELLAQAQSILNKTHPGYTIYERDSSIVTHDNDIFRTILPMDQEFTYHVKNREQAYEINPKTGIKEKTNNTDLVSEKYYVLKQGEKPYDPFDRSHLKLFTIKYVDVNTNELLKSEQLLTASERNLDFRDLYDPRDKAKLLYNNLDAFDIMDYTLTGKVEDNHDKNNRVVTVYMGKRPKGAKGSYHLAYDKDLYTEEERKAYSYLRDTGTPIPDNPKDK

[9] = test system: Streptococcus; test: Group A Streptococcus viability loss, dose response, counter-screen for streptokinase expression inhibitor project, luminescence, BacTiterGlo (AID 1915); format: functional, organism-based;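 also: potency for reduction of bacterial viability or growth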
[10] = Luminescence Cell-Based Dose Retest to Confirm Inhibitors of Cancer Stem Cells. [Related pubchem assays (depositor defined):AID2717, AID2721]; format: functional; conditions: Homo sapiens
[11] = test system: INS1; test: beta cell apoptosis inhibitors, cytokine rescue, dose response, luminescence, retest (AID 449756); format: functional, cell-based; conditions: Rattus norvegicus;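 also: cell death triggered by IL-1 beta plus TNF-alpha plus IFN-gamma mixture; protective hits raise ATP signal compared with cytokine alone wells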
[12] = target: Cytochrome P450 2C19 (Homo sapiens, UniProt P33261); test: Cytochrome panel assay with activity outcomes. Panel member name: p450-cyp2c19 Compounds with AC50 equal or less than 10 uM are considered active; format: functional
[13] = target: Cytochrome P450 3A4 (Homo sapiens, UniProt P08684);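 also: CYP3A4 tested as one member of a cytochrome P450 panel screen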
[14] = target: T3, Replicative DNA helicase DnaB (Mycobacterium tuberculosis, UniProt P9WMR3); test: DnaB intein splicing inhibitors, dose response, biochemical, cell-free fluorescence (AID 449749); format: functional
T3 sequence (P9WMR3 whole entry): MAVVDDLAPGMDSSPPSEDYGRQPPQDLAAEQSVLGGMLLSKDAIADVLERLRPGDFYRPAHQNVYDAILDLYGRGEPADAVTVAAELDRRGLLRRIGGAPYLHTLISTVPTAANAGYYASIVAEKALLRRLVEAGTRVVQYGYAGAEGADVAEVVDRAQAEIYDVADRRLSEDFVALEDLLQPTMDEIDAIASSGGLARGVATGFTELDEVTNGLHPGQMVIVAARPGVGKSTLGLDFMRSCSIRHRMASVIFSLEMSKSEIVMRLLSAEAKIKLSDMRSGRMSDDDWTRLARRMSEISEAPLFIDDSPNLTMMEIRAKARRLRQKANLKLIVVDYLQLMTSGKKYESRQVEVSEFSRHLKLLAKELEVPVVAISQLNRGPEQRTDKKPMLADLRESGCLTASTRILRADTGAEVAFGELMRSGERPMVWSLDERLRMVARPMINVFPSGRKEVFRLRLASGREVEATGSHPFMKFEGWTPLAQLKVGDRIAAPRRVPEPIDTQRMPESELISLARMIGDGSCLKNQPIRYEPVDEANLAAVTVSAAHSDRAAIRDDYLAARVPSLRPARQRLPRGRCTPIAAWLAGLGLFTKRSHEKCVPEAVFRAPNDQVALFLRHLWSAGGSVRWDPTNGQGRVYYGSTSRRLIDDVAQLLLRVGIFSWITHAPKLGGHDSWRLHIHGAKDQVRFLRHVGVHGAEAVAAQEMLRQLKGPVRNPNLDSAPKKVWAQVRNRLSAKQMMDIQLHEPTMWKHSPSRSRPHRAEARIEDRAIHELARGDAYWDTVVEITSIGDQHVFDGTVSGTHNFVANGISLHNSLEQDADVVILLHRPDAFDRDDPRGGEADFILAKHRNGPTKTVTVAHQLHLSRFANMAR

[15] = target: T4, Protein RecA (Mycobacterium tuberculosis, UniProt P9WHJ3); test: Fluorescence Cell-Free Homogeneous Dose Retest to Identify Inhibitors of RecA-Intein Splicing Activity. [Related pubchem assays (depositor defined):AID2097, AID2223, AID489010, AID492950]; format: functional
T4 sequence (P9WHJ3 whole entry): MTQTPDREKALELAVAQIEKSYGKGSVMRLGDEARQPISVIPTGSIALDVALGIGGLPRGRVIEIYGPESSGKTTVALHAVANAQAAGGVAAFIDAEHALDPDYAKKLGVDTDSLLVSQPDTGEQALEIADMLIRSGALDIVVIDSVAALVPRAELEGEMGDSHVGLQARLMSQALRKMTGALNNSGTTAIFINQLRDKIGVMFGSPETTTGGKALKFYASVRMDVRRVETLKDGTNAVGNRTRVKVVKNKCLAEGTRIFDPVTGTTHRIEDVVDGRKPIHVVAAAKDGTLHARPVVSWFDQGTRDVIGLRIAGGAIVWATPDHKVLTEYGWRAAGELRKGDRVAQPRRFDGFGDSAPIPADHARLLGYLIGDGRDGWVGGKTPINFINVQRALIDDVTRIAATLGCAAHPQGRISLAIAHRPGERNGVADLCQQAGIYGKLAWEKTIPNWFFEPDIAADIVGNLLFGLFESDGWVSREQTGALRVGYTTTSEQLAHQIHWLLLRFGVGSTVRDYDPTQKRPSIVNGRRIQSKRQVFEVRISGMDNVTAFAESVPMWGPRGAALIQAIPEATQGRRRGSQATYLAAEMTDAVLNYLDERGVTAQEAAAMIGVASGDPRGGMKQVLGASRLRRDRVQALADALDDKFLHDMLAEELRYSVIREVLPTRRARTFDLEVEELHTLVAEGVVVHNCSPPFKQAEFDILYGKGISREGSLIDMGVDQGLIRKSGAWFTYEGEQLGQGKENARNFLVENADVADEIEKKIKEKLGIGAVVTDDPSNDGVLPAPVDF

[16] = inhibitors of intracellular T. cruzi replication, confirmation, NIH3T3 host cells, beta-gal luminescence (AID 2044); format: functional, cell-based;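 also: intracellular parasites grown in NIH/3T3 mouse fibroblasts as host cells; luminescent beta-galactosidase reporter signal from transgenic T. cruzi replicating inside host cells; inhibitors lower the luminescence signal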
[17] = cytotoxicity toward NIH3T3 fibroblasts, dose response, counter-screen, cell-based, ATP luminescence, mouse fibroblasts (AID 2010); format: functional;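 also: cells exposed to compound for about 90 hours before reading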
[18] = target: Cytochrome P450 2C9 (Homo sapiens, UniProt P11712)
Cytochrome P450 2C9, sequence (P11712 whole entry): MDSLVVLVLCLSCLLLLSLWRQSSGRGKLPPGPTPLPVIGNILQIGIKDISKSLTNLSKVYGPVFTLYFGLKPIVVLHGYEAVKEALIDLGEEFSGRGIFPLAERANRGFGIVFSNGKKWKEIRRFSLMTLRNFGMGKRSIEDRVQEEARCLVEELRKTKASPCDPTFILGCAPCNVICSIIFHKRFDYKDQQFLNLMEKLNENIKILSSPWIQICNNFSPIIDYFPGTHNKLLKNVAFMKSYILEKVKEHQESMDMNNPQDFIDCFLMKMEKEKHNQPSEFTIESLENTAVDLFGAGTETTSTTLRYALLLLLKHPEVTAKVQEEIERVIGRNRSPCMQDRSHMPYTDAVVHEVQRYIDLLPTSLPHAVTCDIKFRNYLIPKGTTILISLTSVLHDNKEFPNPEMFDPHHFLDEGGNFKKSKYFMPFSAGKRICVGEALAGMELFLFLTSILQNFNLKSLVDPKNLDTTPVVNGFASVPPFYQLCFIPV

Cytochrome P450 3A4, sequence (P08684 whole entry): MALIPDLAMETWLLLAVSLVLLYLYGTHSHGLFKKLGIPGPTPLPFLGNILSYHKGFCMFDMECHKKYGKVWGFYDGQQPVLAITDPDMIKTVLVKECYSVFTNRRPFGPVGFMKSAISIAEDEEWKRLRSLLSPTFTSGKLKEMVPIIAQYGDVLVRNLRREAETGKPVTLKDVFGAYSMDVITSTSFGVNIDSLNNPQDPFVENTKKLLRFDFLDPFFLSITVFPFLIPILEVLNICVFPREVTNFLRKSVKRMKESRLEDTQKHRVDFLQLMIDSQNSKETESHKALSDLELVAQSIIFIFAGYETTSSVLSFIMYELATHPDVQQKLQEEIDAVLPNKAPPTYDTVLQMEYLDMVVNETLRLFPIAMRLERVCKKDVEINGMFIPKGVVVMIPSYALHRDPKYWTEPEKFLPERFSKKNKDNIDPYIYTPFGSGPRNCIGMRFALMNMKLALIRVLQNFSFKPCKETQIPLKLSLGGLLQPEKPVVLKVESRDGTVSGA
Cytochrome P450 2C19, sequence (P33261 whole entry): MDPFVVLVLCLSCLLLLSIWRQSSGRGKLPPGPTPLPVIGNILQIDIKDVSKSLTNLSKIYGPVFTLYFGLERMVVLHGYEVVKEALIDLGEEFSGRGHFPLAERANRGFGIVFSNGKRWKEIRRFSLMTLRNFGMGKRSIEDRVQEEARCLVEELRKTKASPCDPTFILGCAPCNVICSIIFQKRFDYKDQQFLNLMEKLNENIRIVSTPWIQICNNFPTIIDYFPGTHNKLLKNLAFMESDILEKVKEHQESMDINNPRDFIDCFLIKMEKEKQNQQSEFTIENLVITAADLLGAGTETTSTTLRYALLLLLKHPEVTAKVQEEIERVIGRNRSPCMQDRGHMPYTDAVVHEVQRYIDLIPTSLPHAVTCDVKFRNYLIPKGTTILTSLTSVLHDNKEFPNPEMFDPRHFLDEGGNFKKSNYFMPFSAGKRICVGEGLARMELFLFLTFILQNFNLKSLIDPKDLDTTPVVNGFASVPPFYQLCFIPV

Compound: CCOc1ccc(C(=O)Nc2ccc3c(c2)OCCO3)cc1
- EC50 [1]: > 260 µM (inconclusive)

Compound: CCCCOC(=O)c1ccc(NC(=S)NC(=O)c2c(Br)c(C)nn2C)cc1
- EC50 [2]: > 350 µM (not active)
- EC50 [3]: 44.9 µM (active)

Compound: Cc1nnc(Sc2nc3c(c(=O)n(C)c(=O)n3C)n2Cc2ccccc2Cl)s1
- EC50 [1]: > 260 µM (inactive)

Compound: CCOc1ccccc1CN1CCNC(=O)C1CC(=O)NCc1nccn1CC (centres undefined)
- EC50 [1]: > 260 µM (inactive)

Compound: CCOC(=O)c1ccc(S(=O)(=O)NNC(=O)COc2ccccc2C)cc1
- EC50 [2]: > 350 µM (not active)
- EC50 [3]: > 350 µM (not active)

Compound: Cc1ccc(C(=O)c2c3ccccc3[n+]([O-])n2[C@@H](C)C(N)=O)cc1
- EC50 [4]: 6.39 µM (active)
- EC50 [5]: 11.2 µM (active)
- EC50 [6]: 38 µM (active)

Compound: CCc1cc(=O)oc2c(CNCc3ccccc3F)c(O)c(Cl)cc12
- EC50 [1]: > 260 µM (inactive)

Compound: CC(=O)c1ccc(N(C(=O)c2csnn2)C(C(=O)NC(C)(C)C)c2cccs2)cc1 (centres undefined)
- EC50 [2]: > 350 µM (not active)
- EC50 [3]: > 350 µM (not active)

Compound: COc1ccc(CCC(=O)NCCS(=O)(=O)N2CCN(c3ccccc3OC)CC2)cc1
- EC50 [4]: > 120 µM (not active)
- EC50 [5]: > 120 µM (not active)
- EC50 [6]: > 120 µM (not active)

Compound: COc1ccc(/C=N/NC(=O)c2cccnc2)c(C(=O)O)c1OC
- EC50 [1]: > 260 µM (inactive)

Compound: CN(Cc1cccc(C(F)(F)F)c1)C(=O)C1CCC(=O)N(CC2CCCCC2)C1 (centres undefined)
- EC50 [2]: > 350 µM (not active)
- EC50 [3]: > 350 µM (not active)

Compound: CCC(=O)c1ccc(N2CCN(C(=O)c3ccc(Br)cc3)CC2)c(F)c1
- EC50 [2]: > 350 µM (not active)
- EC50 [3]: > 350 µM (not active)

Compound: CCC(C)Sc1cccc(-c2nc3ccc(C)cn3c2NCc2ccccc2)c1 (centres undefined)
- EC50 [7]: 3.25 µM (active)
- EC50 [8]: 4.26 µM (active)
- EC50 [9]: 10.3 µM (active)
- AC50 [10]: 2.75 µM (active)
- AC50 [11]: 7.39 µM (active)

Compound: Cc1cc2nc(CCN(C(S)=NCC3CCCO3)C3CCCC3)[nH]c2cc1C (centres undefined)
- EC50 [1]: > 260 µM (inactive)

Compound: O=C(CSc1ncccn1)Nc1ccc(S(=O)(=O)N2CCCCC2)cc1
- AC50 ([12]; read-out: AC50): 25.1 µM (inconclusive)
- AC50 [13]: 25.1 µM (inconclusive)

Compound: CCn1c(SCC(=O)N/N=C/C=C/c2ccco2)nc2ccccc21
- EC50 [1]: > 260 µM (inactive)

Compound: Cc1ccc(C)c(S(=O)(=O)Nc2ccc(O)c3ccccc23)c1
- AC50 [14]: 0.384 µM (active)
- EC50 [15]: 0.0745 µM (active)
- AC50 [11]: 7.62 µM (active)

Compound: CCNS(=O)(=O)c1ccc(NC(=O)c2cncc(Br)c2)cc1
- EC50 [2]: > 350 µM (not active)
- EC50 [3]: > 350 µM (not active)

Compound: O=[N+]([O-])c1ccc(OCCCCN2CCCCC2)cc1
- EC50 [2]: > 350 µM (not active)
- EC50 [3]: > 350 µM (not active)

Compound: O=C(Cn1c(-c2ccccc2)c[n+]2ccsc12)c1ccc([N+](=O)[O-])cc1
- EC50 [16]: 0.549 µM (active)
- EC50 [17]: > 60 µM (not active)
- AC50 [11]: 11.6 µM (active)

Compound: Cc1ccc(/C=N/NC(=O)Cc2ccc(Cl)cc2)c(O)c1
- EC50 [7]: 1.1 µM (active)
- EC50 [9]: 3.08 µM (active)
- AC50 [11]: 3.76 µM (active)

Compound: CC(C)(C)NC(=O)NC(=O)CN1CC=C(c2ccccc2)CC1
- EC50 [1]: > 260 µM (inactive)

Compound: C/C(=N\NC(=O)C(=O)Nc1cccc(Cl)c1)c1ccncc1
- AC50 [11]: 4.88 µM (active)

Compound: CCN=C(S)N1CCN(S(=O)(=O)c2cccc(C(F)(F)F)c2)CC1
- EC50 [1]: > 260 µM (inactive)

Compound: CCOC(=O)C1(Cc2ccc(OC)cc2)CCN(C(=O)c2cc3ccccc3[nH]2)CC1
- EC50 [1]: 30.3 µM (active)

Compound: CNc1nc(N)c([N+](=O)[O-])c(Nc2cccc(F)c2)n1
- AC50 [11]: > 260 µM (inactive)

Compound: COC(=O)Nc1nnc(Cc2ccc(OC)cc2)s1
- EC50 [2]: > 350 µM (not active)
- EC50 [3]: > 350 µM (not active)

Compound: Cc1ccc(NC(=O)C2CC(=O)n3c(nc4ccccc43)N2)cc1 (centres undefined)
- AC50 ([12]; read-out: AC50): 6.31 µM (inconclusive)
- AC50 [13]: 17.8 µM (inconclusive)
- AC50 [18]: 0.0355 µM (inconclusive)

Compound: Cc1cc(SCC(=O)N/N=C/c2ccccc2C(=O)O)c(C)cc1Br
- EC50 [2]: > 350 µM (not active)
- EC50 [3]: > 350 µM (not active)

Compound: Cc1nc2ncnn2c(C)c1CCC(=O)NCc1ccco1
- EC50 [1]: > 260 µM (inactive)
- AC50 [12]: inconclusive
- AC50 [13]: 10 µM (inconclusive)

Compound: O=C(CCCC1=NS(=O)(=O)c2ccccc2N1)N1CCN(c2ccccc2)CC1
- EC50 [1]: > 260 µM (inactive)
